Reference: patent publication US7811997B2, “Composition containing total triterpenoid sapogenins extracted from bamboo, and the preparation method and use thereof” (priority 2002, dated 2010)
Read-outs that look alike come from different tables or passages of the source.

What was measured:
Format in all cases: cell-based
A375 (human malanoma) = assay: MTT proliferation inhibition, A375 cells; details: A375 cell; for inhibition at 7.5 µM / inhibition at 15 µM / inhibition at 30 µM / inhibition at 60 µM / inhibition at 120 µM / inhibition at 240 µM / inhibition at 480 µM / inhibition at 960 µM / IC50: Homo sapiens; for inhibition at 7.5 µM: 7.5 μmol/L; for inhibition at 7.5 µM / inhibition at 15 µM / inhibition at 30 µM / inhibition at 60 µM / inhibition at 120 µM / inhibition at 240 µM / inhibition at 480 µM / inhibition at 960 µM: read-out: Inhibitory rate (%); for inhibition at 15 µM: 15 μmol/L; for inhibition at 30 µM: 30 μmol/L; for inhibition at 60 µM: 60 μmol/L; for inhibition at 240 µM: 240 μmol/L; for inhibition at 480 µM: 480 μmol/L; for inhibition at 960 µM: 960 μmol/L; for IC50: A-375, MTT, Bliss method
Excerpt: (§1) The Silica Gel Column Chromatography and Countercurrent Chromatography preparation techniques were used to obtain Friedelin monomer extracted from EZR2002 for the sake of evaluating its anti-tumor activity further. The purity of this monomer determined by GC-MS analysis was 90.5%.
(§2) A375 (human malanoma), L929 (mouse lung epithelial tumor), Hela (human cervical tumor) and THP-1 (human macrophage tumor) cell lines were used for active filtration test in this experiment. Among these cell lines, A375, L929 and Hela were adherent cells while THP-1 was a kind of suspended cell.
(§3) All cells were maintained in the RPMI-1640 culture medium supplemented with 10% fetal calf serum, penicillin (100 U/mL), streptomycin (100 μg/mL) and 0.2% NaHCO3. These supplements were dissolved in deionized water and 0.22 μm filtration membrane was used for filter sterilization. The fetal calf serum was inactivated 30 min at 56° C. prior to an experiment. Cells were cultured in a humidified incubator of 5% CO2 at 37° C.
(§4) A375, L929 and Hela cells in logarithmic growth phases were seeded at a cell density of approximately 5×10^4 cells/mL in 96 pore plates (100 μL/well). Furthermore, THP-1 cell was seeded at a cell density of approximately 1×10^5 cells/mL because it was smaller than others. Samples were added in suspended cells after culturing 4 h and in adherent cells after culturing 12 h. Friedelin was dissolved in DMSO in advance and then in the culture medium with the ultrasonic treatment, where the final concentration of the solvent in the culture medium was <0.1% (v/v). Sample was added for 7.5, 15, 30, 60, 120, 240, 480 and 960 μmol/L. Each level had four parallel pores and a negative control. The cells were incubated for 24 and 48 h and then 15 μL/well MTT solvent (5 mg/mL) was added.
(§5) The cells were incubated for 48 h, followed by centrifugation at 1500 rpm for 5 min. The supernatant was removed and 150 μL/well DMSO was added, followed by micro-vibrator shocking for 10 min and crystal dissolving completely. The absorbance (OD value) was measured by enzyme-labeled meter at 492 nm. Furthermore, the inhibitory rate of cell proliferation and the IC50 value of friedelin were counted by using Bliss method.
(§6) The de-methyl-cantharidin was taken as the positive control and the inhibitory rate of A375, L929 and Hela cells were measured by adding de-methyl-cantharidin (120 μmol/L) for 24 and 48 h (Table 8). Furthermore, the corresponding data of Friedelin were counted.

[1] = system: Hela (human cervical tumor); assay: MTT proliferation inhibition, Hela cells; details: Hela cell; for Inhibitory rate (%) / inhibition at 120 µM: 120 μmol/L; for inhibition at 7.5 µM / inhibition at 15 µM / inhibition at 30 µM / inhibition at 60 µM / inhibition at 120 µM / inhibition at 240 µM / inhibition at 480 µM / inhibition at 960 µM / IC50: Homo sapiens; for inhibition at 7.5 µM / inhibition at 15 µM / inhibition at 30 µM / inhibition at 60 µM / inhibition at 120 µM / inhibition at 240 µM / inhibition at 480 µM / inhibition at 960 µM: HeLa, read-out: Inhibitory rate (%); for inhibition at 7.5 µM: 7.5 μmol/L; for inhibition at 15 µM: 15 μmol/L; for inhibition at 30 µM: 30 μmol/L; for inhibition at 60 µM: 60 μmol/L; for inhibition at 240 µM: 240 μmol/L; for inhibition at 480 µM: 480 μmol/L; for inhibition at 960 µM: 960 μmol/L; for IC50: MTT, Bliss method
Excerpt: as §1, §2, §3, §4, §5, §6

[2] = system: THP-1 (human macrophage tumor); assay: MTT proliferation inhibition, THP-1 cells; details: THP-1 cell; for inhibition at 7.5 µM: 7.5 μmol/L; for inhibition at 7.5 µM / inhibition at 15 µM / inhibition at 30 µM / inhibition at 60 µM / inhibition at 120 µM / inhibition at 240 µM / inhibition at 480 µM / inhibition at 960 µM: read-out: Inhibitory rate (%); for inhibition at 15 µM: 15 μmol/L; for inhibition at 30 µM: 30 μmol/L; for inhibition at 60 µM: 60 μmol/L; for inhibition at 120 µM: 120 μmol/L; for inhibition at 240 µM: 240 μmol/L; for inhibition at 480 µM: 480 μmol/L; for inhibition at 960 µM: 960 μmol/L; for IC50: MTT, Bliss method
Excerpt: as §1, §2, §3, §4, §5

[3] = system: L929 (mouse lung epithelial tumor); assay: MTT proliferation inhibition, L929 cells; details: L929 cell; for Inhibitory rate (%) / inhibition at 120 µM: 120 μmol/L; for inhibition at 7.5 µM / inhibition at 15 µM / inhibition at 30 µM / inhibition at 60 µM / inhibition at 120 µM / inhibition at 240 µM / inhibition at 480 µM / inhibition at 960 µM / IC50: Mus musculus; for inhibition at 7.5 µM: 7.5 μmol/L; for inhibition at 7.5 µM / inhibition at 15 µM / inhibition at 30 µM / inhibition at 60 µM / inhibition at 120 µM / inhibition at 240 µM / inhibition at 480 µM / inhibition at 960 µM: read-out: Inhibitory rate (%); for inhibition at 15 µM: 15 μmol/L; for inhibition at 30 µM: 30 μmol/L; for inhibition at 60 µM: 60 μmol/L; for inhibition at 240 µM: 240 μmol/L; for inhibition at 480 µM: 480 μmol/L; for inhibition at 960 µM: 960 μmol/L; for IC50: MTT, Bliss method
Excerpt: as §1, §2, §3, §4, §5, §6

Q: Which results are given for `C[C@H]1C(=O)CC[C@@H]2[C@]1(C)CC[C@H]1[C@@]2(C)CC[C@@]2(C)[C@@H]3CC(C)(C)CC[C@]3(C)CC[C@]12C` [Friedelin, friedelin]?
A: Inhibitory rate (%) (A375 (human malanoma); 48 h, 120 μmol/L): 88.6%; inhibition at 7.5 µM (A375 (human malanoma); A-375, 24 h, 24 h): 0%; inhibition at 15 µM (A375 (human malanoma); A-375, 24 h, 24 h): 6.43%; inhibition at 30 µM (A375 (human malanoma); A-375, 24 h, 24 h): 0.43%; inhibition at 60 µM (A375 (human malanoma); A-375, 24 h, 24 h): 14.1%; inhibition at 120 µM (A375 (human malanoma); A-375, 24 h, 24 h, 120 μmol/L): 36.7%; inhibition at 240 µM (A375 (human malanoma); A-375, 24 h, 24 h): 44.8%; inhibition at 480 µM (A375 (human malanoma); A-375, 24 h, 24 h): 63.3%; inhibition at 960 µM (A375 (human malanoma); A-375, 24 h, 24 h): 60.4%; inhibition at 7.5 µM (A375 (human malanoma); A-375, 48 h, 48 h): 0.51%; inhibition at 15 µM (A375 (human malanoma); A-375, 48 h, 48 h): 6.29%; inhibition at 30 µM (A375 (human malanoma); A-375, 48 h, 48 h): 17.2%; inhibition at 60 µM (A375 (human malanoma); A-375, 48 h, 48 h): 44.4%; inhibition at 120 µM (A375 (human malanoma); A-375, 48 h, 48 h, 120 μmol/L): 88.6%; inhibition at 240 µM (A375 (human malanoma); A-375, 48 h, 48 h): 100%; inhibition at 480 µM (A375 (human malanoma); A-375, 48 h, 48 h): 96.1%; inhibition at 960 µM (A375 (human malanoma); A-375, 48 h, 48 h): 89.8%; IC50 (A375 (human malanoma); 24 h): 357 µM; IC50 (A375 (human malanoma); 48 h): 61.5 µM; Inhibitory rate (%) ([1]; 24 h): 71.6%; Inhibitory rate (%) ([1]; 48 h): 86.0%; inhibition at 7.5 µM ([1]; 24 h, 24 h): 35%; inhibition at 15 µM ([1]; 24 h, 24 h): 34.7%; inhibition at 30 µM ([1]; 24 h, 24 h): 33.3%; inhibition at 60 µM ([1]; 24 h, 24 h): 43.4%; inhibition at 120 µM ([1]; 24 h, 24 h): 71.6%; inhibition at 240 µM ([1]; 24 h, 24 h): 88.2%; inhibition at 480 µM ([1]; 24 h, 24 h): 88.1%; inhibition at 960 µM ([1]; 24 h, 24 h): 73.8%; inhibition at 7.5 µM ([1]; 48 h, 48 h): 20%; inhibition at 15 µM ([1]; 48 h, 48 h): 17.2%; inhibition at 30 µM ([1]; 48 h, 48 h): 24.6%; inhibition at 60 µM ([1]; 48 h, 48 h): 41.4%; inhibition at 120 µM ([1]; 48 h, 48 h): 86%; inhibition at 240 µM ([1]; 48 h, 48 h): 99.5%; inhibition at 480 µM ([1]; 48 h, 48 h): 98%; inhibition at 960 µM ([1]; 48 h, 48 h): 92%; IC50 ([1]; 24 h): 61.2 µM; IC50 ([1]; 48 h): 64.7 µM; inhibition at 7.5 µM ([2]; 24 h): 4.89%; inhibition at 15 µM ([2]; 24 h): 0%; inhibition at 30 µM ([2]; 24 h): 3.04%; inhibition at 60 µM ([2]; 24 h): 45.2%; inhibition at 120 µM ([2]; 24 h): 58.8%; inhibition at 240 µM ([2]; 24 h): 68.5%; inhibition at 480 µM ([2]; 24 h): 74.1%; inhibition at 960 µM ([2]; 24 h): 70.8%; IC50 ([2]; 24 h): 85.1 µM; inhibition at 7.5 µM ([2]; 48 h): 8.6%; inhibition at 15 µM ([2]; 48 h): 0%; inhibition at 30 µM ([2]; 48 h): 7.57%; inhibition at 60 µM ([2]; 48 h): 52.6%; inhibition at 120 µM ([2]; 48 h): 77.3%; inhibition at 240 µM ([2]; 48 h): 95%; inhibition at 480 µM ([2]; 48 h): 92.9%; inhibition at 960 µM ([2]; 48 h): 82.5%; IC50 ([2]; 48 h): 58 µM; Inhibitory rate (%) ([3]; 24 h): 37.6%; Inhibitory rate (%) ([3]; 48 h): 81.1%; inhibition at 7.5 µM ([3]; L929, 24 h, 24 h): 5.42%; inhibition at 15 µM ([3]; L929, 24 h, 24 h): 10.4%; inhibition at 30 µM ([3]; L929, 24 h, 24 h): 13.2%; inhibition at 60 µM ([3]; L929, 24 h, 24 h): 22.7%; inhibition at 120 µM ([3]; L929, 24 h, 24 h): 37.6%; inhibition at 240 µM ([3]; L929, 24 h, 24 h): 52.3%; inhibition at 480 µM ([3]; L929, 24 h, 24 h): 48.1%; inhibition at 960 µM ([3]; L929, 24 h, 24 h): 38.9%; inhibition at 7.5 µM ([3]; L929, 48 h, 48 h): 17.3%; inhibition at 15 µM ([3]; L929, 48 h, 48 h): 21.6%; inhibition at 30 µM ([3]; L929, 48 h, 48 h): 38.8%; inhibition at 60 µM ([3]; L929, 48 h, 48 h): 66.8%; inhibition at 120 µM ([3]; L929, 48 h, 48 h): 81.1%; inhibition at 240 µM ([3]; L929, 48 h, 48 h): 99.5%; inhibition at 480 µM ([3]; L929, 48 h, 48 h): 98.2%; inhibition at 960 µM ([3]; L929, 48 h, 48 h): 89.9%; IC50 ([3]; 24 h): 665 µM; IC50 ([3]; 48 h): 36.9 µM
